Assays:
Assay in all cases: radiometric protein kinase assay
DYRK1A = DYRK1A (Homo sapiens, UniProt Q13627); assay type: biochemical; conditions: 15 μmol/L ATP; read-out: IC50 DYRK 1A
CLK4 = CLK4 (Mus musculus, UniProt O35493)
Protocol: (§1) Buffers. Buffer A: 10 mM MgCl2, 1 mM EGTA, 1 mM DTT, 25 mM Tris-HCl pH 7.5, 50 μg heparin/mL. Buffer C: 60 mM β-glycerophosphate, 15 mM p-nitrophenylphosphate, 25 mM MOPS (pH 7.2), 15 mM EGTA, 15 mM MgCl2, 1 mM DTT, 1 mM sodium vanadate, 1 mM phenylphosphate.
(§2) Kinase activities were assayed in buffer A or C at 30°C at a final ATP concentration of 15 μmol/L. Blank values were subtracted and activities were expressed in percent of the maximal activity, i.e. in the absence of inhibitors. Controls were performed with appropriate dilutions of DMSO.
(§3) Their kinase activity was assayed in buffer A, with 1 mg histone H1/mL, in the presence of 15 μmol/L [γ-33P] ATP (3,000 Ci/mmol; 10 mCi/mL) in a final volume of 30 μL. After 30 min incubation at 30°C, the reaction was stopped by harvesting onto P81 phosphocellulose supernatant (Whatman) using a FilterMate harvester (Packard) and washing in 1% phosphoric acid. Scintillation fluid was added and the radioactivity measured in a Packard counter.
(§4) All data points for construction of dose response curves were recorded in triplicate.

CDK5/p25 = target: T1, CDK5/p25 (Homo sapiens, UniProt Q00535); assay type: biochemical; conditions: 15 μmol/L ATP
T1 construct: made in house

DYRK2 = target: T2, DYRK2 (Homo sapiens, UniProt Q92630); assay type: biochemical; conditions: 15 μmol/L ATP; read-out: IC50 DYRK 2
T2 sequence (Q92630 1-601): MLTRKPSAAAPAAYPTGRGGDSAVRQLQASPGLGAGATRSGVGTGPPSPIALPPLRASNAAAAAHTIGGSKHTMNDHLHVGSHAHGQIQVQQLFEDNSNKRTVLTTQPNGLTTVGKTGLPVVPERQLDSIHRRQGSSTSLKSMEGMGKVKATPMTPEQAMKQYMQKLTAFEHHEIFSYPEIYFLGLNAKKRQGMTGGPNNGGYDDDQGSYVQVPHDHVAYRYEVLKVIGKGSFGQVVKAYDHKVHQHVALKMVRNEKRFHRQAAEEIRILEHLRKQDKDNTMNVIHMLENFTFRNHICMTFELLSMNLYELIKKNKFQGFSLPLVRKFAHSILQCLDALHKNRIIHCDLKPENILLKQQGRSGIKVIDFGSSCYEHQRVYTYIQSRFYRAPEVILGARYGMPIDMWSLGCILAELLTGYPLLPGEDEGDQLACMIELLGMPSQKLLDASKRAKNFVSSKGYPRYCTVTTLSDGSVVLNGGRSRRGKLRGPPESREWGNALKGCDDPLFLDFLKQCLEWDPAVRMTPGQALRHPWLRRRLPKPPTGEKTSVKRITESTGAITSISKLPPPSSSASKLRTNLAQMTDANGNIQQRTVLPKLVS

CDK1/cyclin B = assay type: biochemical, starfish; conditions: 15 μmol/L ATP
CLK2 = CLK2 (Mus musculus, UniProt O35491)
Sequence of CLK2 (O35491 whole entry): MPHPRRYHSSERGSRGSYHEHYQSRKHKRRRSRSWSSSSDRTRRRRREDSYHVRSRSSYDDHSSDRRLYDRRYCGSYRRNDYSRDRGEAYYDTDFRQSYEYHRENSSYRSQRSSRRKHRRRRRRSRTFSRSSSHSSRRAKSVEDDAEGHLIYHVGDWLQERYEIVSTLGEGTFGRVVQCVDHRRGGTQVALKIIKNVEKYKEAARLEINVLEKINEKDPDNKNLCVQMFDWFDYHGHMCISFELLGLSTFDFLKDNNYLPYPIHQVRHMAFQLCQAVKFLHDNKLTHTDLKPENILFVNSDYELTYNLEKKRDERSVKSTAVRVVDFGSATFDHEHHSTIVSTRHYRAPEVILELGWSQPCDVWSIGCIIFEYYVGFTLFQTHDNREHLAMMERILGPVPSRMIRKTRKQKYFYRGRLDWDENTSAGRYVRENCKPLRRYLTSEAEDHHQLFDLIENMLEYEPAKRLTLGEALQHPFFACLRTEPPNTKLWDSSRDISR
Protocol: as §1, §2, §3, §4

CDK2/cyclin A = target: T3, CDK2/cyclin A (Homo sapiens, UniProt P24941); assay type: biochemical; conditions: 15 μmol/L ATP; read-out: IC50 CDK2/cyclinA
T3 construct: made in house

CK1δ/ε = assay type: biochemical, porcine; conditions: 15 μmol/L ATP; read-out: IC50 CK1
DYRK3 = target: T4, DYRK3 (Homo sapiens, UniProt O43781); assay type: biochemical; conditions: 15 μmol/L ATP; read-out: IC50 DYRK 3
T4 sequence (O43781 1-588): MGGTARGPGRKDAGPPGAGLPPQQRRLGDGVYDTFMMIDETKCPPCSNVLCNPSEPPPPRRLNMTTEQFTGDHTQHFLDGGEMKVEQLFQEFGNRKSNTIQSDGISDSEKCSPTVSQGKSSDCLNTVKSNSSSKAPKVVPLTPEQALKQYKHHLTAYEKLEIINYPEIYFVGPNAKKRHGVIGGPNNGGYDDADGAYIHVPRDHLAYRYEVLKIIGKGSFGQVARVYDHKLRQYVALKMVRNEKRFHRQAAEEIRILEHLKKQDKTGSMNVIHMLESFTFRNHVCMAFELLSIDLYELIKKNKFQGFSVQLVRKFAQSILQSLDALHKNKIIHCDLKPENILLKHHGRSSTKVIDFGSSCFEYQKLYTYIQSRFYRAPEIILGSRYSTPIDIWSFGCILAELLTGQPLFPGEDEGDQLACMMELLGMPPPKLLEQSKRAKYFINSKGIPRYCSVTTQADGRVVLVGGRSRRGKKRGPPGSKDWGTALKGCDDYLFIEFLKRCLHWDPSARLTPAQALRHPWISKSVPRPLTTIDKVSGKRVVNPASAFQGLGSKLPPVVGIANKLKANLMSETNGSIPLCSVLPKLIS

CLK3 = CLK3 (Mus musculus, UniProt O35492)
Sequence of CLK3 (O35492 whole entry): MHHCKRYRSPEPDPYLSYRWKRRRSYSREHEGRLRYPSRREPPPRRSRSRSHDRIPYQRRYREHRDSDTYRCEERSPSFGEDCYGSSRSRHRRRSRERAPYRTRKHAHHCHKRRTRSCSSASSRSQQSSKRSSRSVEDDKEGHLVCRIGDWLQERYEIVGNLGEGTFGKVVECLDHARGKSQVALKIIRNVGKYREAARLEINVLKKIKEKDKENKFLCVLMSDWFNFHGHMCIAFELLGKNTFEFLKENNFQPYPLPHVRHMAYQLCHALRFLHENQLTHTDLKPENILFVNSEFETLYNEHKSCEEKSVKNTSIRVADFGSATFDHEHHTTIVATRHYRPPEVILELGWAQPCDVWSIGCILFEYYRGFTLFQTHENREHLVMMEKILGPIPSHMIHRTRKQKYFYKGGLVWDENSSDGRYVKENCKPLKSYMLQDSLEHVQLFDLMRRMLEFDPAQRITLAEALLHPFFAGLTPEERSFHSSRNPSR
Protocol: as §1, §2, §3, §4

DYRK1B = DYRK1B (Homo sapiens, UniProt Q9Y463); assay type: biochemical; conditions: 15 μmol/L ATP; read-out: IC50 DYRK 1B
Sequence of DYRK1B (Q9Y463 whole entry): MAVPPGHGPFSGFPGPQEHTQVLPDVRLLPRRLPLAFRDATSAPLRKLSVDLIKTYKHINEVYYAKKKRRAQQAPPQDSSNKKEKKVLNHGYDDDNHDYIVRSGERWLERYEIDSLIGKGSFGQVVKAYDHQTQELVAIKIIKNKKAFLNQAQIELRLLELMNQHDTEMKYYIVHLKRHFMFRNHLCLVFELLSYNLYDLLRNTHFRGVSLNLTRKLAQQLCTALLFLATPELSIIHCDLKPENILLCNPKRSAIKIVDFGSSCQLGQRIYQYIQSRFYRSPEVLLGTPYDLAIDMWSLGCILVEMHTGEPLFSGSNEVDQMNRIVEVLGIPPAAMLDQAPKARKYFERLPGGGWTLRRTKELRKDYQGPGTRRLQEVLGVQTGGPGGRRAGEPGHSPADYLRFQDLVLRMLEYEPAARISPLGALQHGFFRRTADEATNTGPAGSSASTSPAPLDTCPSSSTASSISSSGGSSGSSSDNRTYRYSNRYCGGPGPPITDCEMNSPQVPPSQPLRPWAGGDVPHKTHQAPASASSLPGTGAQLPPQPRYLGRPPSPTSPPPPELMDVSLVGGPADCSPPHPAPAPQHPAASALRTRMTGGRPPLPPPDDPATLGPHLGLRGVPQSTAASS

CLK1 = CLK1 (Mus musculus, UniProt P22518)
Sequence of CLK1 (P22518 whole entry): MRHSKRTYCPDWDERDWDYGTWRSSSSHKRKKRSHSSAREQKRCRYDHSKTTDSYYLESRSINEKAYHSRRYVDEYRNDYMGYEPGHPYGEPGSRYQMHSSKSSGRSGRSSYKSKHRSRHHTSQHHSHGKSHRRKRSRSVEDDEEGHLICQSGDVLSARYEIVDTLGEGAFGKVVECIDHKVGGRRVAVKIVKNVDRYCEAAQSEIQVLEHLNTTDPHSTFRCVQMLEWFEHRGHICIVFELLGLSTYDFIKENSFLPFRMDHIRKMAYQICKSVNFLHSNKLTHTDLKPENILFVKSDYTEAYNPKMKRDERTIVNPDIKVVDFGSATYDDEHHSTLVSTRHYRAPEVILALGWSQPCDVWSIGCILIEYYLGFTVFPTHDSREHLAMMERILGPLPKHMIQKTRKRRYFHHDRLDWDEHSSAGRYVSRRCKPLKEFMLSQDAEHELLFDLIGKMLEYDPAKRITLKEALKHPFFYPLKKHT
Protocol: Buffer A: 10 mM MgCl2, 1 mM EGTA, 1 mM DTT, 25 mM Tris-HCl pH 7.5, 50 μg heparin/mL. Buffer C: 60 mM β-glycerophosphate, 15 mM p-nitrophenylphosphate, 25 mM MOPS (pH 7.2), 15 mM EGTA, 15 mM MgCl2, 1 mM DTT, 1 mM sodium vanadate, 1 mM phenylphosphate.
Controls were performed with appropriate dilutions of DMSO. The GS-1, CKS, CDK7/9 tide and RS peptide substrates were obtained from Proteogenix (Oberhausbergen, France).
CDK1/cyclin B (M phase starfish oocytes, native), CDK2/cyclin A and CDK5/p25 (human, recombinant) were prepared as previously described [33]. […] ATP (3,000 Ci/mmol; 10 mCi/mL) in a final volume of 30 μL. After 30 min incubation at 30°C, the reaction was stopped by harvesting onto P81 phosphocellulose supernatant (Whatman) using a FilterMate harvester (Packard) and washing in 1% phosphoric acid. Scintillation fluid was added and the radioactivity measured in a Packard counter.
as §4

CDK9/cyclin T = CDK9/cyclin T (Homo sapiens, UniProt P50750)
Sequence of CDK9/cyclin T (P50750 whole entry): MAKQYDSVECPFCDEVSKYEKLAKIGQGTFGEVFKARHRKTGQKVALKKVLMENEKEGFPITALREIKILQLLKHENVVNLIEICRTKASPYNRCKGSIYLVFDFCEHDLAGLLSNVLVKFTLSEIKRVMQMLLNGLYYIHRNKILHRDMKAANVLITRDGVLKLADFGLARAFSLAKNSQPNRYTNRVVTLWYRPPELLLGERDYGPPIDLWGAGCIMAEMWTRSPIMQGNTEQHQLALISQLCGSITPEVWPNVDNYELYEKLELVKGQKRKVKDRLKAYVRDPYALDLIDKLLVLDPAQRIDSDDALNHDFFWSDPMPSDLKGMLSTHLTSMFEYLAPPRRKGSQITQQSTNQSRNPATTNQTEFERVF
Sequence of CDK9/cyclin T (O60563 whole entry partner): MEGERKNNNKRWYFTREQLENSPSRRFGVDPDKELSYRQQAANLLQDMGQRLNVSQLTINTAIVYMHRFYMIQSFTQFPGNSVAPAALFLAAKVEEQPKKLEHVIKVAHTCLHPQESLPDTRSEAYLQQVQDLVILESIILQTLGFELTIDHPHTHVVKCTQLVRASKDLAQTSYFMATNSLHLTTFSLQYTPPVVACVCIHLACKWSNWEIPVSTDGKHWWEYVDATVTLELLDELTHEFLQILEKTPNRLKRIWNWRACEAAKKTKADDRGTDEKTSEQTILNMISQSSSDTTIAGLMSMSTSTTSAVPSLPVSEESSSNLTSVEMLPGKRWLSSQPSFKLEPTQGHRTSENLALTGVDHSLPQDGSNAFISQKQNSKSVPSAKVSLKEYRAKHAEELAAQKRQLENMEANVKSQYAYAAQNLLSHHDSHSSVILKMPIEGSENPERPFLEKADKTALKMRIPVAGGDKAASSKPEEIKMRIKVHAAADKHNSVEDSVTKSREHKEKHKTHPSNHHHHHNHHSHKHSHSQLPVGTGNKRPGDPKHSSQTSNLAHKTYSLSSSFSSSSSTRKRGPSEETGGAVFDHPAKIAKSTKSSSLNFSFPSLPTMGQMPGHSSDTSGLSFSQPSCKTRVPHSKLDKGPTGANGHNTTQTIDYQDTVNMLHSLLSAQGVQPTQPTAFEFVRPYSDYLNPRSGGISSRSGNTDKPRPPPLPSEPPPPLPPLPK
Protocol: as §1, §2, §3, §4

GSK-3 = assay type: biochemical, porcine; conditions: 15 μmol/L ATP; read-out: IC50 GSK3

T1 sequence (Q00535 whole entry): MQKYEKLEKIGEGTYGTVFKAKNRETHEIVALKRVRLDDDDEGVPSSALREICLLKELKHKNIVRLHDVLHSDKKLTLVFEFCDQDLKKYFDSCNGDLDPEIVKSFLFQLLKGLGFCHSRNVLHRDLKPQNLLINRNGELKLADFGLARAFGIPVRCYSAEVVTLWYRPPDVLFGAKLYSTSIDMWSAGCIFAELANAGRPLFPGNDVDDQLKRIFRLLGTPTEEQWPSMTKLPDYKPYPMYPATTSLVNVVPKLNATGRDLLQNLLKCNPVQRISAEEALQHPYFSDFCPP
T1 sequence (Q15078 99-307 partner limits assumed): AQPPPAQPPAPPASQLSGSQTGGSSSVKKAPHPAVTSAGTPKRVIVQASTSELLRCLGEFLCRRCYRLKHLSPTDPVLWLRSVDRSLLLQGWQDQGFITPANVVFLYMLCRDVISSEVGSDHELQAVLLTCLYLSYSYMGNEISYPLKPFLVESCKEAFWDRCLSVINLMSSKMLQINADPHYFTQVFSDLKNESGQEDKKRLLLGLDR
Sequence of CLK4 (O35493 whole entry): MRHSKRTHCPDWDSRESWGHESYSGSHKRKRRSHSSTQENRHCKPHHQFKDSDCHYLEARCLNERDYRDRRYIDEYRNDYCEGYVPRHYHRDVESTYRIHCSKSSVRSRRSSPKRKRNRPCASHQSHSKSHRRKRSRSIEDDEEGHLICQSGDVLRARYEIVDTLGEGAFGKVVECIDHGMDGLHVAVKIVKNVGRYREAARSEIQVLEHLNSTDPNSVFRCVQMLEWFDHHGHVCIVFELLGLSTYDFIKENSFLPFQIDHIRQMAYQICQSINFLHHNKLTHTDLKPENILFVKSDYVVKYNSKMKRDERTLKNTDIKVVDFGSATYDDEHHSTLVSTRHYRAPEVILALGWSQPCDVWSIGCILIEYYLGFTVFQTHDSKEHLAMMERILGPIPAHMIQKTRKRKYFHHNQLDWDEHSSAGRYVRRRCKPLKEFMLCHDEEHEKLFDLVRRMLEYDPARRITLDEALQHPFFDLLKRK

Structure (SMILES)	IC50 (DYRK1A) [µM]	IC50 (CLK4) [µM]	IC50 (CDK5/p25) [µM]	IC50 (DYRK2) [µM]	IC50 (CDK1/cyclin B) [µM]	IC50 (CLK2) [µM]	IC50 (CDK2/cyclin A) [µM]	IC50 (CK1δ/ε) [µM]	IC50 (DYRK3) [µM]	IC50 (CLK3) [µM]	IC50 (DYRK1B) [µM]	IC50 (CLK1) [µM]	IC50 (CDK9/cyclin T) [µM]	IC50 (GSK-3) [µM]
O=C1NCc2c(-c3ccccc3)cc3c(-c4ccccc4)c[nH]c3c21 [17a, 3,5-Diphenyl-6,7-dihydropyrrolo[3,4-g]indol-8(1H)-one]	> 10	1.3	> 10	> 10	> 10	7.2	> 10	> 10	> 10	> 10	> 10	8.8	> 10	> 10
O=C1NCc2ccc3c(-c4ccc(Cl)cc4)c[nH]c3c21 [8d, 3-(4-Chlorophenyl)-6,7-dihydropyrrolo[3,4-g]indol-8(1H)-one]	> 10	0.13	> 10	9.3	> 10	0.17	> 10	> 10	> 10	1.8	> 10	0.1	> 10	> 10
O=C1NCc2ccc3c(-c4ccccc4)c(Br)[nH]c3c21 [compound 16, 2-Bromo-3-phenyl-6,7-dihydropyrrolo[3,4-g]indol-8(1H)-one]	1.9	0.029	> 10	1.8	> 10	0.11	> 10	> 10	3.9	2.8	1.3	0.11	> 10	> 10
O=C1NCc2c(Cl)cc3c(-c4ccccc4)c[nH]c3c21 [12c, 5-Chloro-3-phenyl-6,7-dihydropyrrolo[3,4-g]indol-8(1H)-one]	0.32	0.3	> 10	2.3		0.033	> 10	> 10	> 10	2.2	1.8	0.38	> 10	> 10
CCc1[nH]c2c3c(ccc2c1-c1ccccc1)CNC3=O [8l, 2-Ethyl-3-phenyl-6,7-dihydropyrrolo[3,4-g]indol-8(1H)-one]	0.81		> 10		> 10		> 10	6.1				0.12	> 10	> 10
O=C1NCc2c(Br)cc3c(-c4ccccc4)c[nH]c3c21 [12a, 5-Bromo-3-phenyl-6,7-dihydropyrrolo[3,4-g]indol-8(1H)-one]	0.2		5.3		2.8		> 10	1.7				0.043	> 10	> 10
Cc1[nH]c2c3c(ccc2c1-c1ccccc1)CNC3=O [8k, 2-Methyl-3-phenyl-6,7-dihydropyrrolo[3,4-g]indol-8(1H)-one]	1.5		> 10		> 10		> 10	> 10				0.093	> 10	> 10
